Data published in patent US12018059B2, “Human amylin analog polypeptides and methods of use” (Intarcia Therapeutics, Inc., priority 2018, dated 2024).
Starred links: 1 amine or outer side, 2 acyl side, 3 side chain; linkers in the order of their positions; H or OH if unused. Positions of bridges follow the written chain, without caps; N, C: chain ends. Non-standard residues stand in square brackets, D forms with d. Residues, ends and D or L forms follow the SMILES beside them. Groups on a side chain read outwards from the residue. *: point of attachment. C20 diacid = O=C(O)CCCCCCCCCCCCCCCCCCC(=O)*; C16 diacid = O=C(O)CCCCCCCCCCCCCCC(=O)*; γGlu = O=C(O)[C@H](CCC(=O)[*:2])N[*:1]; HOOC(CH2)6CO = O=C(O)CCCCCCC(=O)*; Palmitoyl = CCCCCCCCCCCCCCCC(=O)*; AEEA = NCCOCCOCC(=O)O

Assay: in vivo
Design: species or system Sprague-Dawley rats
Details: rat, iv, 0.033 mg/kg
Procedure: Peptides were dissolved in sterile saline and administered as a 1-hour intravenous infusion to non-fasted male Sprague-Dawley rats (n=3 per group) via femoral vein cannula at a final dose of 0.033 mg/kg. […] Blood samples (approximately 250 μL) were collected for pharmacokinetic analysis via a jugular vein cannula at 0.25, 0.5, 0.75, 1, 1.17, 1.33, 1.5, 2, 4, 6, 8, 24, 30 and 48 hr post-start of infusion into microtainer tubes containing K2EDTA as anticoagulant and 25 μL of a protease inhibitor cocktail. Plasma was prepared by centrifugation and stored at −80° C. until analysis. The results of this analysis are shown in Table 9 and few exemplars in FIGS. 3a-3b. […]
A 60 μL aliquot of each plasma sample was placed into to a 96-well plate. To each well was added 6 μL of 0.5% Tween-20. Plates were then vortexed mixed for 10 minutes at 1200 rpm before 180 μL of 0.1% TFA in 2:1 ethanol:acetonitrile containing an appropriate internal standard was added to each well. Plates were vortex mixed for 5 min at 1300 rpm, and then centrifuged for 10 min at 2844×g. Supernatants (180 μL) were placed into a clean 96-well plate and evaporated under a nitrogen stream at 45° C. Residues were reconstituted in 80 μL of 20% acetonitrile (aq) containing 0.1% formic acid.
A […] aliquot of each plasma sample was diluted with […] of 10 mM ammonium acetate (pH 6.8) containing an appropriate internal standard and loaded onto an Oasis WCX microElution plate (Waters Corporation, Milford, MA) that had been pre-conditioned with […] of methanol and […] of deionized water. Samples were washed with […] of 5% ammonium hydroxide (aq) followed by […] of 20% acetonitrile in water. The analyte was eluted with […] of 5% formic acid in 75:25 acetonitrile:water. The eluent was dried under a nitrogen stream. Residues were reconstituted in 80 μL of 20% acetonitrile (aq) containing 0.1% formic acid.
All calibration standards were prepared in control rat plasma containing K2EDTA and protease inhibitor cocktail.
Samples and standards were analyzed by TurbolonSpray™ UPLC-MS/MS using a system consisting of a CTC HTS PAL auto-injector (Leap, Carrboro, NC), an Agilent Infinity 1290 system with column oven (Palo Alto, CA), a Valco switching valve (Houston, TX), and either an AB Sciex API 5600 TripleTOF™ or Sciex API 4000QTrap mass spectrometer (Framingham, MA). Samples were injected onto a 2.1×50 mm reverse phase C18 analytical column, typically a Waters CORTECS UPLC C18+, 1.6 μm (Waters Corporation, Milford, MA) or similar. […] Initial conditions consisted of 90% A and 10% B. The organic component was increased to 95% B over a period of 3-4 minutes, depending on the peptide. Typical flow rates were 600 μL/min. The column temperature was held constant at 40 or 50° C. Peptides were quantified by monitoring one or more product ions produced from a multiply charged parent ion.

Row | Structure (SMILES) | Vd [L/kg] | clearance [mL/min/kg] | half-life [h] | Vd (male, Sprague-Dawley) [L/kg] | clearance (male, Sprague-Dawley) [mL/min/kg] | half-life (male, Sprague-Dawley) [h]
1 | CC[C@H](C)[C@H](NC(=O)[C@@H]1CCCN1C(=O)CNC(=O)[C@H](Cc1ccccc1)NC(=O)[C@H](CC(N)=O)NC(=O)[C@H](CC(N)=O)NC(=O)[C@H](CO)NC(=O)[C@H](CO)NC(=O)[C@H](CCCCN)NC(=O)[C@H](Cc1c[nH]cn1)NC(=O)[C@H](CC(C)C)NC(=O)[C@H](CCCCNC(=O)CCCCCCCCCCCCCCC(=O)O)NC(=O)[C@H](CC(N)=O)NC(=O)[C@H](C)NC(=O)[C@H](CC(C)C)NC(=O)[C@H](CCCNC(=N)N)NC(=O)[C@H](CCC(N)=O)NC(=O)[C@@H](NC(=O)[C@H](C)NC(=O)[C@@H]1CSSC[C@H](NC(=O)[C@@H](N)CO)C(=O)N[C@@H](CC(N)=O)C(=O)N[C@@H]([C@@H](C)O)C(=O)N[C@@H](CO)C(=O)N[C@@H]([C@@H](C)O)C(=O)N1)[C@@H](C)O)C(=O)N[C@@H](CC(C)C)C(=O)N1CCC[C@H]1C(=O)N1CCC[C@H]1C(=O)N[C@H](C(=O)N[C@@H](CCCCN)C(=O)N[C@H](C(=O)NCC(=O)N[C@@H](CO)C(=O)N[C@@H](CCC(=O)O)C(=O)N[C@H](C(=O)N[C@@H](Cc1ccc(O)cc1)C(N)=O)[C@@H](C)O)C(C)C)[C@@H](C)O [Compound A72] (H-SCNTSTCATQRLANK(C16 diacid)LHKSSNNFGPILPPTKVGSETY-NH2; disulfide 2-7) | 0.172 | 1.54 | 3.44 | – | – | –
2 | CCCCCCCCCCCCCCCC(=O)N[C@@H](CCC(=O)NCCOCCOCC(=O)NCCOCCOCC(=O)NCCCC[C@@H](NC(=O)[C@H](CCC(=O)O)NC(=O)[C@H](CC(N)=O)NC(=O)[C@H](C)NC(=O)[C@H](CC(C)C)NC(=O)[C@H](CCCNC(=N)N)NC(=O)[C@H](CCC(N)=O)NC(=O)[C@@H](NC(=O)[C@H](C)NC(=O)[C@@H]1CSSC[C@H](NC(=O)[C@@H](N)CO)C(=O)N[C@@H](CC(N)=O)C(=O)N[C@@H]([C@@H](C)O)C(=O)N[C@@H](CO)C(=O)N[C@@H]([C@@H](C)O)C(=O)N1)[C@@H](C)O)C(=O)N[C@@H](Cc1c[nH]cn1)C(=O)N[C@@H](CCCCN)C(=O)N[C@@H](CO)C(=O)N[C@@H](CO)C(=O)N[C@@H](CC(N)=O)C(=O)N[C@@H](CC(N)=O)C(=O)N[C@@H](Cc1ccccc1)C(=O)NCC(=O)N1CCC[C@H]1C(=O)N[C@H](C(=O)N[C@@H](CC(C)C)C(=O)N1CCC[C@H]1C(=O)N1CCC[C@H]1C(=O)N[C@H](C(=O)N[C@@H](CCCCN)C(=O)N[C@H](C(=O)NCC(=O)N[C@@H](CO)C(=O)N[C@@H](CCC(=O)O)C(=O)N[C@H](C(=O)N[C@@H](Cc1ccc(O)cc1)C(N)=O)[C@@H](C)O)C(C)C)[C@@H](C)O)[C@@H](C)CC)C(=O)O [Compound A12] (H-SCNTSTCATQRLANE[dK]([AEEA-AEEA-γGlu-Palmitoyl])HKSSNNFGPILPPTKVGSETY-NH2; disulfide 2-7; N-terminus assumed) | 0.252 | 1.55 | 2.47 | – | – | –
3 | CC[C@H](C)[C@H](NC(=O)[C@@H]1CCCN1C(=O)CNC(=O)[C@H](Cc1ccccc1)NC(=O)[C@H](CC(N)=O)NC(=O)[C@H](CC(N)=O)NC(=O)[C@H](CO)NC(=O)[C@H](CO)NC(=O)[C@H](CCCCN)NC(=O)[C@H](Cc1c[nH]cn1)NC(=O)[C@H](CCCCNC(=O)CCCCCCCCCCCCCCCCCCC(=O)O)NC(=O)[C@H](CCC(=O)O)NC(=O)[C@H](CC(N)=O)NC(=O)[C@H](C)NC(=O)[C@H](CC(C)C)NC(=O)[C@H](CCCNC(=N)N)NC(=O)[C@H](CCC(N)=O)NC(=O)[C@@H](NC(=O)[C@H](C)NC(=O)[C@@H]1CSSC[C@H](NC(=O)[C@@H](N)CO)C(=O)N[C@@H](CC(N)=O)C(=O)N[C@@H]([C@@H](C)O)C(=O)N[C@@H](CO)C(=O)N[C@@H]([C@@H](C)O)C(=O)N1)[C@@H](C)O)C(=O)N[C@@H](CC(C)C)C(=O)N1CCC[C@H]1C(=O)N1CCC[C@H]1C(=O)N[C@H](C(=O)N[C@@H](CCCCN)C(=O)N[C@H](C(=O)NCC(=O)N[C@@H](CO)C(=O)N[C@@H](CCC(=O)O)C(=O)N[C@H](C(=O)N[C@@H](Cc1ccc(O)cc1)C(N)=O)[C@@H](C)O)C(C)C)[C@@H](C)O [Compound A75] (H-SCNTSTCATQRLANEK(C20 diacid)HKSSNNFGPILPPTKVGSETY-NH2; disulfide 2-7; N-terminus assumed) | – | – | – | 0.121 | 0.0781 | 24.1
4 | CC[C@H](C)[C@H](NC(=O)[C@@H]1CCCN1C(=O)CNC(=O)[C@H](Cc1ccccc1)NC(=O)[C@H](CC(N)=O)NC(=O)[C@H](CC(N)=O)NC(=O)[C@H](CO)NC(=O)[C@H](CO)NC(=O)[C@H](CCCCN)NC(=O)[C@H](Cc1c[nH]cn1)NC(=O)[C@H](CC(C)C)NC(=O)[C@H](CCCCNC(=O)CCCCCCC(=O)O)NC(=O)[C@H](CC(N)=O)NC(=O)[C@H](C)NC(=O)[C@H](CC(C)C)NC(=O)[C@H](CCCNC(=N)N)NC(=O)[C@H](CCC(N)=O)NC(=O)[C@@H](NC(=O)[C@H](C)NC(=O)[C@@H]1CSSC[C@H](NC(=O)[C@@H](N)CO)C(=O)N[C@@H](CC(N)=O)C(=O)N[C@@H]([C@@H](C)O)C(=O)N[C@@H](CO)C(=O)N[C@@H]([C@@H](C)O)C(=O)N1)[C@@H](C)O)C(=O)N[C@@H](CC(C)C)C(=O)N1CCC[C@H]1C(=O)N1CCC[C@H]1C(=O)N[C@H](C(=O)N[C@@H](CCCCN)C(=O)N[C@H](C(=O)NCC(=O)N[C@@H](CO)C(=O)N[C@@H](CCC(=O)O)C(=O)N[C@H](C(=O)N[C@@H](Cc1ccc(O)cc1)C(N)=O)[C@@H](C)O)C(C)C)[C@@H](C)O [Compound A18] (H-SCNTSTCATQRLANK(HOOC(CH2)6CO)LHKSSNNFGPILPPTKVGSETY-NH2; disulfide 2-7) | 0.805 | 19.4 | 0.508 | – | – | –
5 | CCCCCCCCCCCCCCCC(=O)N[C@@H](CCC(=O)N[C@@H](CCC(=O)N[C@@H](CCC(=O)N[C@@H](CCC(=O)NCCCC[C@H](NC(=O)[C@H](CCC(=O)O)NC(=O)[C@H](CC(N)=O)NC(=O)[C@H](C)NC(=O)[C@H](CC(C)C)NC(=O)[C@H](CCCNC(=N)N)NC(=O)[C@H](CCC(N)=O)NC(=O)[C@@H](NC(=O)[C@H](C)NC(=O)[C@@H]1CSSC[C@H](NC(=O)[C@@H](N)CO)C(=O)N[C@@H](CC(N)=O)C(=O)N[C@@H]([C@@H](C)O)C(=O)N[C@@H](CO)C(=O)N[C@@H]([C@@H](C)O)C(=O)N1)[C@@H](C)O)C(=O)N[C@@H](Cc1c[nH]cn1)C(=O)N[C@@H](CCCCN)C(=O)N[C@@H](CO)C(=O)N[C@@H](CO)C(=O)N[C@@H](CC(N)=O)C(=O)N[C@@H](CC(N)=O)C(=O)N[C@@H](Cc1ccccc1)C(=O)NCC(=O)N1CCC[C@H]1C(=O)N[C@H](C(=O)N[C@@H](CC(C)C)C(=O)N1CCC[C@H]1C(=O)N1CCC[C@H]1C(=O)N[C@H](C(=O)N[C@@H](CCCCN)C(=O)N[C@H](C(=O)NCC(=O)N[C@@H](CO)C(=O)N[C@@H](CCC(=O)O)C(=O)N[C@H](C(=O)N[C@@H](Cc1ccc(O)cc1)C(N)=O)[C@@H](C)O)C(C)C)[C@@H](C)O)[C@@H](C)CC)C(=O)O)C(=O)O)C(=O)O)C(=O)O [Compound A21] (H-SCNTSTCATQRLANEK([γGlu-γGlu-γGlu-γGlu-Palmitoyl])HKSSNNFGPILPPTKVGSETY-NH2; disulfide 2-7) | 0.131 | 0.178 | 10.4 | – | – | –
